# Results published in patent US20140336216A1, “PHYSIOLOGICAL LIGANDS FOR GPR139” (Janssen Pharmaceutica NV, priority 2013, published 2014).
# “And” between values parts separate entries of the source, which are not always exact repeats. Identical values can stand only once.
# Assays:
# GPR139 [1] = target: T1, GPR139 (Homo sapiens, UniProt Q6DWJ6); test: GTPγS binding assay, single-concentration screen, COS7 membranes co-expressing GPR139 and GO2Q; assay type: biochemical; design: expressed in transfected cells; host or cells: COS7 (membranes); conditions: for Activation of GPR139 in the GTPγS binding assay: 1 mM; for Activation levels of GPR139 (GTPγS binding), GPR139-GO2Q: 1 mM final concentration, COS7 membranes co-expressing GPR139 and GO2Q, single wells of triplicate
# T1 sequence (Q6DWJ6 1-353): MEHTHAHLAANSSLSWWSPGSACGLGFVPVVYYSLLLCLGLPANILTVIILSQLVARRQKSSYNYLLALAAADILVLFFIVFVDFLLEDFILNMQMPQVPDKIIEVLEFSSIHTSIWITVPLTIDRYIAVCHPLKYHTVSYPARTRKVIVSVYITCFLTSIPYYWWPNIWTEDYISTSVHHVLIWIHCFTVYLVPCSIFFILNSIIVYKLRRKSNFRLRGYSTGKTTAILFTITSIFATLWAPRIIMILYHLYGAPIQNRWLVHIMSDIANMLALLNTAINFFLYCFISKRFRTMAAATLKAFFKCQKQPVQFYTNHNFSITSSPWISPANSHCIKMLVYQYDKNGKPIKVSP
# Procedure: (§1) In order identify the ligands for GPR139 two improvements in the detection assay were made to allow for the ligands to be detected. First, we chose to use a GTPγS binding assay instead of using live cultured cells. The GTPγS binding assay is a cell free system that uses the cell membrane of the cell(s) of interest rather than the live cell(s). One advantage of this assay is that potential ligands present in the cell culture media are washed away when the cell membrane is prepared. This reduces the basal level of signal and increase the chance of detecting receptor ligands when assessing compounds that activate the receptor. Second, a GO2Q chimeric G-protein was created to be co-expressed with GPR139 in order to increase the signal-to-noise ratio in the GTPγS binding assay. Historically, the Gi, Go coupled GPCRs offer much greater signal-to-noise ratio in GTPγS binding studies. For Gs and Gq coupled GPCRs, although ligand-stimulated specific signals can be detected in a GTPγS binding assay, the signal-to-noise ratios are often very small. To address this a chimeric GO2-Gq chimeric G-protein, GO2Q, with the N-terminus from Go2 protein and the C-terminus from Gq protein.
# (§2) To test for compounds that activate GPR139, different amino acids and their derivatives (Table 2) were tested as ligands in the GTPγS binding assay using cell membranes from COS7 cells co-expressing GPR139 and GO2Q. Cell membrane from COS7 cells expressing GO2Q alone or co-expressing other GPCRs were also tested in GTPγS binding assay in parallel as controls. Each compound was tested in triplicate.
# GO2Q alone = test: GTPγS binding assay, control COS7 membranes expressing GO2Q alone (Ct-GO2Q); assay type: biochemical; conditions: for Activation levels (GTPγS binding), Ct-GO2Q: 1 mM final concentration, COS7 membranes expressing GO2Q alone, single wells of triplicate; for Activation of membranes from cells expressing GO2Q alone: same assay, 1 mM
# Procedure: as §1, §2
# GPR139 [2] = target: T1, GPR139; test: GTPγS binding dose response study, human GPR139 co-transfected with GO2Q into COS7 cells; assay type: biochemical; design: expressed in transfected cells; host or cells: COS7 (membranes); conditions: human GPR139, FIG. 2A and 2B
# Description: (§3) FIG. 2-FIG. 2F: Tryptophan, phenylalanine, and their derivatives activate GPR139. Human (FIG. 2A and FIG. 2B) or mouse (FIG. 2C and FIG. 2D) GPR139 were co-transfected with chimeric G-protein GO2Q into COS7 cells. Cell membranes from transfected cells were used in GTPγS binding studies using various ligands at different concentrations to stimulate GPR139. FIG. 2E and FIG. 2F show control experiments in the dose response studies of Example 1.
# mouse GPR139 = target: T2, mouse GPR139 (Mus musculus, UniProt Q80UC8); test: GTPγS binding dose response study, mouse GPR139 co-transfected with GO2Q into COS7 cells; assay type: biochemical; conditions: mouse GPR139, FIG. 2C and 2D
# T2 construct: expressed in transfected cells; host or cells: COS7 (membranes)
# T2 sequence (Q80UC8 1-345): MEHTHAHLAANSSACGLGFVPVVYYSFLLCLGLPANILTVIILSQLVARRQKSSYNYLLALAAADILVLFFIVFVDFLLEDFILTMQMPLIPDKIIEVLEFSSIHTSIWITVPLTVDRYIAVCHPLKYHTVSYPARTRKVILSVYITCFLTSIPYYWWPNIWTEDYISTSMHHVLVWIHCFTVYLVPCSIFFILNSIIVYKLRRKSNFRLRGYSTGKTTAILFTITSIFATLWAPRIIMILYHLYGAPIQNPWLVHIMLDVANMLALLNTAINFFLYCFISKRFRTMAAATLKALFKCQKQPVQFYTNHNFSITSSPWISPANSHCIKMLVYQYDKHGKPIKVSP
# Description: as §3
# [3] = target: T3, N-terminally V-tagged mouse GPR139 (Mus musculus, UniProt Q80UC8); test: GPR139 internalization in transiently transfected HEK-293 cells; assay type: cell-based; conditions: FIG. 4
# T3 construct: V tag (printed 'V-tagged' and 'VS-tagged'); expressed in transfected cells; host or cells: HEK-293 (transient)
# T3 sequence (Q80UC8 1-345): T2 sequence (Q80UC8 1-345)
# Description: Many GPCRs are internalize by the cell when they are activated.
# GPR139 [4] = target: T1, GPR139; test: Calcium mobilization assay (FLIPR), GPR139 expressed in HEK293 cells; assay type: cell-based; design: expressed in transfected cells; host or cells: HEK293 (transient); conditions: for EC50: GPR139 expressing HEK293 cells, read-out: EC50 (half maximal effective concentration), calcium mobilization; for Stimulation of calcium mobilization: human GPR139 transiently expressed in HEK293 cells, FIG. 3
# Procedure: FIG. 3A and FIG. 3B: Provides the results of experiments conducted to determine whether Trp and its derivatives (FIG. 3A) and Phe and its derivatives (FIG. 3B) stimulate Ca^2+ mobilization in HEK293 cells expressing GPR139.
# The active compounds were also tested in a calcium mobilization assay (FLIPR® assay). For these experiments human GPR139 was transiently expressed in HEK293 cells and calcium mobilization was stimulated using L-Trp, L-Phe or their derivatives. […] The concentrations of L-Trp and L-Phe in many cell culture media (for instance DMEM is about 80 μM and 750 μM respectively) are close to the EC50 values of L-Trp and L-Phe for GPR139. […] This may explain why GPR139 appeared constitutively active when recombinantly expressed in mammalian cells.
# About 300 additional phenylalanine analogues have been tested for GPR139 activation using a calcium mobilization (FLIPR®) assay. The results of these experiments indicate that many of these analogues can also activate GPR139. Table 4 lists certain phenylalanine analogues that have been determined to activate GPR139 by calcium mobilization at a concentration of 300 μM (calcium mobilization is expressed as percentage of that observed for L-phenylalanine).
# [5] = system: GPR21, GPR52, GPCR119, GPCR132, GPCR134, or GPR182; test: GTPγS binding assay, control membranes co-expressing GO2Q and other GPCRs (data not shown); assay type: biochemical
# Procedure: as §2
Structure (SMILES),Activation of GPR139 in the GTPγS binding assay (GPR139 [1]),"Activation levels of GPR139 (GTPγS binding), GPR139-GO2Q (GPR139 [1])","Activation levels (GTPγS binding), Ct-GO2Q (GO2Q alone)",Dose-responsive activation of GPR139 (GTPγS binding) (GPR139 [2]),Dose-responsive activation of GPR139 (GTPγS binding) (mouse GPR139),Internalization of tagged GPR139 upon stimulation [3],Activation of membranes from cells expressing GO2Q alone (GO2Q alone),EC50 (GPR139 [4]),Stimulation of calcium mobilization (GPR139 [4]),Activation of membranes from cells co-expressing GO2Q and other GPCRs [5]
CC(N)Cc1ccccc1 (centres unmarked) [Amphetamine],activated GPR139,7242 and 6744 and 7263,2331 and 2132 and 2001,specifically activate GPR139 in a dose-responsive manner,specifically activate GPR139 in a dose-responsive manner,,,,,
NCCc1c[nH]c2ccccc12 [Tryptamine],activated GPR139,6757 and 7686 and 7742,2025 and 2048 and 2088,specifically activate GPR139 in a dose-responsive manner,specifically activate GPR139 in a dose-responsive manner,,,,,
"N[C@@H](Cc1ccccc1)C(=O)O [Phe, L-phenylalanine]",able to activate GPR139,8697 and 6925 and 8417,2190 and 2215 and 2345,specifically activate GPR139 in a dose-responsive manner,specifically activate GPR139 in a dose-responsive manner,internalized,did not activate,100 to 200 µM,specifically stimulate calcium mobilization,did not activate
"NCCc1ccccc1 [b-phenylethylamine, β-phenylethylamine]",activated GPR139,6705 and 7099 and 6634,2334 and 2065 and 2024,specifically activate GPR139 in a dose-responsive manner,specifically activate GPR139 in a dose-responsive manner,,,,,
"N[C@@H](Cc1c[nH]c2ccccc12)C(=O)O [Trp, L-tryptophan]",able to activate GPR139,8141 and 9121 and 9149,2172 and 2234 and 2272,specifically activate GPR139 in a dose-responsive manner,specifically activate GPR139 in a dose-responsive manner,internalized,did not activate,100 to 200 µM,specifically stimulate calcium mobilization,did not activate
